Test results taken from the OligoGym collection.
“And” between values parts separate entries of the source, which are not always exact repeats. Equal entries are not always repeated. After the bases stand the sugars from the 5' end (letter, count) and the backbone: PS all phosphorothioate, else s phosphorothioate and o phosphodiester by linkage. Methylation of C is not given here. e = 2'-O-(2-methoxyethyl) (MOE); d = 2'-deoxy (DNA)

Molecular target: DGAT2
Conditions: ASO

Row | Sequence | target mRNA inhibition (HepG2, 0.12 µM) | target mRNA inhibition (HepG2, 2.5 µM) | target mRNA inhibition (HepG2, 10 µM) | target mRNA inhibition (HepG2, 20 µM)
1 | TTGCCACTCCCATTCTTTGA (sugars e3 d14 e3, PS) | 59% |  |  | 
2 | AGGTTAGCTGAGCCACCCAG (sugars e5 d10 e5, PS) | 59% |  |  | 
3 | TCAGAAGGCCAGGCCCCTTC (sugars e5 d10 e5, PS) | 20% |  |  | 
4 | ACTGGTGCCTAAGAGCCCTA (sugars e5 d10 e5, PS) |  | 77% | 94% | 
5 | TCACAGAATTATCAGCAGTA (sugars e5 d10 e5, PS) |  | 80% and 61% | 93% and 84% | 
6 | GTTGTGTGTCTTCACCAGCT (sugars e2 d13 e5, PS) | 65% |  |  | 
7 | TCATGAGAAGCTTAGAAGGC (sugars e5 d10 e5, PS) | 58% |  |  | 
8 | AGCACAGCGATGAGCCA (sugars e3 d10 e4, PS) |  | 58% | 87% | 
9 | AGCGCAGAGCCCATCAGCCT (sugars e5 d10 e5, PS) | 48% |  |  | 
10 | TATAGTTCCTGGTGGTCAGC (sugars e5 d10 e5, PS) | 56% |  |  | 
11 | GAGCACAGCGATGAGCCAGC (sugars e5 d10 e5, PS) |  | 43% | 91% | 
12 | CTTGCCAGGCATGGAGCTCA (sugars e5 d10 e5, PS) | 51% |  |  | 
13 | TCCTATCAGTTAGCAGTGCA (sugars e5 d10 e5, PS) |  | 81% and 68% | 86% and 83% | 
14 | CGATTCACTGAGGACCTCAG (sugars e5 d10 e5, PS) |  | 79% | 61% | 
15 | GGACACCTGGAGCTGCGGCC (sugars e5 d10 e5, PS) |  | 35% | 73% | 
16 | GGTTGCAATGTTGCCATCAT (sugars e5 d10 e5, PS) |  | 91% and 83% | 93% and 91% | 
17 | GGTAAGGCCGTATGCCTGGG (sugars e3 d14 e3, PS) | 51% |  |  | 
18 | AGGACCCCGGAGTAGGCGGC (sugars e2 d13 e5, PS) | 81% |  | 85% | 
19 | GGGTGTGTTCCAGTCAAACA (sugars e5 d10 e5, PS) | 6% |  |  | 
20 | AGGATGCTTAACTTCTGCTG (sugars e5 d10 e5, PS) |  | 82% | 76% | 
21 | GCATTTTAACAAGATCCCCA (sugars e5 d10 e5, PS) | 34% |  |  | 
22 | GCTCATGAGAAGCTTAGAAG (sugars e5 d10 e5, PS) |  | 66% | 86% | 

Row | Sequence | target mRNA inhibition (HepG2, 0.12 µM) | target mRNA inhibition (HepG2, 2.5 µM) | target mRNA inhibition (HepG2, 10 µM) | target mRNA inhibition (HepG2, 20 µM)
23 | ATAACCCACAGACACCCATG (sugars e5 d10 e5, PS) | 24% |  |  | 
24 | AGTTCCTGGTGGTCAGCAGG (sugars e5 d10 e5, PS) | 58% |  |  | 
25 | ATGCCAATGCCTAGGTC (sugars e3 d10 e4, PS) |  | 70% and 84% |  | 
26 | TGGAACTTCTTCTGGACCCA (sugars e5 d10 e5, PS) | 43% |  |  | 
27 | AGCACTTGATCTGGGACCCA (sugars e5 d10 e5, PS) |  | 65% | 94% | 
28 | TAAGCCTCGGTGTCCTCTCC (sugars e5 d10 e5, PS) |  | 90% | 73% | 
29 | TGTGATGACTTCCCAGGGTC (sugars e5 d10 e5, PS) |  | 85% | 76% | 
30 | ATATACAAAAGTCTGACATG (sugars e5 d10 e5, PS) | 21% |  |  | 
31 | GAAACAGGCAGTAGGAAATC (sugars e5 d10 e5, PS) | 23% |  |  | 
32 | GGGCGAAACCAATGTATTTC (sugars e5 d10 e5, PS) | 24% |  |  | 
33 | AGCATTGCCACTCCCATTCT (sugars e2 d13 e5, PS) | 50% |  |  | 
34 | CTTGGAGTAGGGCACCAGCC (sugars e5 d10 e5, PS) | 35% |  |  | 
35 | CCAGTTTCGGACCCACTGTG (sugars e2 d13 e5, PS) | 80% | 12% | 25% and 50% | 50%
36 | AGGCAGATGGACAGGTGATT (sugars e5 d10 e5, PS) |  | 54% | 92% | 
37 | ACAGCCCAGTTTCGGACCCA (sugars e5 d10 e5, PS) | 27% |  |  | 
38 | CACCAGCCAAGTGAAGTAGA (sugars e5 d10 e5, PS) | 23% |  |  | 
39 | GCTCAGTTCTTCCAACCAGT (sugars e5 d10 e5, PS) |  | 87% and 86% | 94% and 93% | 
40 | AGTCCAAACACTCAGGTAGG (sugars e5 d10 e5, PS) |  | 66% | 79% | 
41 | CGGACTGAATGTCACCTCTT (sugars e5 d10 e5, PS) |  | 74% and 73% | 90% and 76% | 
42 | TCACCAGATTGTTGTGGGAA (sugars e5 d10 e5, PS) |  | 69% | 78% | 
43 | GCCAGAGTTATCCTCAATTC (sugars e5 d10 e5, PS) |  | 89% | 78% | 
44 | GGCCTTGGCTGCAAGCTCTG (sugars e5 d10 e5, PS) |  | 52% | 67% | 

Row | Sequence | target mRNA inhibition (HepG2, 0.12 µM) | target mRNA inhibition (HepG2, 2.5 µM) | target mRNA inhibition (HepG2, 10 µM) | target mRNA inhibition (HepG2, 20 µM)
45 | TGCACCTTGTATTAAATACT (sugars e5 d10 e5, PS) |  | 76% and 65% | 93% and 87% | 
46 | GCCTCCATGTACATGGTGTG (sugars e5 d10 e5, PS) | 63% |  |  | 
47 | GGCCCAACCCCCTCAGGAAG (sugars e5 d10 e5, PS) | 19% |  |  | 
48 | CCTGCTTGTACACTTCATTC (sugars e5 d10 e5, PS) |  | 51% | 87% | 
49 | TTAGGCATGCTTCCTCCCAC (sugars e5 d10 e5, PS) |  | 78% | 68% | 
50 | CAGCGATGAGCCAGCAA (sugars e3 d10 e4, PS) |  | 35% | 88% | 
51 | CTCCTCCCCTTGGCAGAGAA (sugars e5 d10 e5, PS) | 43% |  |  | 
52 | GGACAGAGGTTCAACATCCA (sugars e5 d10 e5, PS) |  | 58% | 89% | 
53 | GCTATAGAATCAGACAGACC (sugars e5 d10 e5, PS) | 46% |  |  | 
54 | CGGAGAGGATGCTGGATCCA (sugars e5 d10 e5, PS) | 47% |  |  | 
55 | AGGCTCTGGTTCCATGCTCT (sugars e5 d10 e5, PS) |  | 61% | 79% | 
56 | CTGGCTCAGTTCACCTCCAG (sugars e5 d10 e5, PS) | 90% |  |  | 
57 | TAGCCAGGTAAGGCCGTATG (sugars e3 d14 e3, PS) | 49% |  |  | 
58 | CGCAGGGCCAGTTTCACAAA (sugars e5 d10 e5, PS) | 31% |  |  | 
59 | AGACCACATGAAGTATCTAA (sugars e5 d10 e5, PS) | 50% |  |  | 
60 | ACTTCTTCTGGACCCATCGG (sugars e5 d10 e5, PS) | 28% |  |  | 
61 | GCATGAACAAGGGCAAGTCC (sugars e5 d10 e5, PS) |  | 79% | 89% | 
62 | AGAGGGTTCCATGGCACAAA (sugars e5 d10 e5, PS) | 67% |  |  | 
63 | TTTCGGACCCACTGTGACCT (sugars e5 d10 e5, PS) | 65% |  |  | 
64 | GCTGGATGGGAAAGTAGTCT (sugars e5 d10 e5, PS) | 22% |  |  | 
65 | CCAAAGATATAGTTCCTGGT (sugars e5 d10 e5, PS) | 66% |  |  | 
66 | TGGACAAGTCCTGCCCATCT (sugars e5 d10 e5, PS) | 72% |  |  | 
